From PMC5662223, “Biophysical and functional characterization of the N-terminal domain of the cat T1R1 umami taste receptor expressed in Escherichia coli” (PLoS ONE, 2017)
“Also recorded” adds a separate entry of the source.

What was measured:
[1] = target: cT1R1-NTD (N-terminal domain of the cat T1R1 taste receptor) (Felis catus, UniProt A0ABI7Z2I4); assay: Ligand binding assay by intrinsic tryptophan fluorescence of refolded cT1R1-NTD; conditions: for synergetic effect of IMP on L-amino acid binding (shift of binding curve): 0.3 μM IMP final concentration; for maximal amplitude of cT1R1-NTD fluorescence induced by the amino acid in presence of IMP: compared to the other tested L-amino acids
Sequence of cT1R1-NTD (N-terminal domain of the cat T1R1 taste receptor) (A0ABI7Z2I4 entry or part of it): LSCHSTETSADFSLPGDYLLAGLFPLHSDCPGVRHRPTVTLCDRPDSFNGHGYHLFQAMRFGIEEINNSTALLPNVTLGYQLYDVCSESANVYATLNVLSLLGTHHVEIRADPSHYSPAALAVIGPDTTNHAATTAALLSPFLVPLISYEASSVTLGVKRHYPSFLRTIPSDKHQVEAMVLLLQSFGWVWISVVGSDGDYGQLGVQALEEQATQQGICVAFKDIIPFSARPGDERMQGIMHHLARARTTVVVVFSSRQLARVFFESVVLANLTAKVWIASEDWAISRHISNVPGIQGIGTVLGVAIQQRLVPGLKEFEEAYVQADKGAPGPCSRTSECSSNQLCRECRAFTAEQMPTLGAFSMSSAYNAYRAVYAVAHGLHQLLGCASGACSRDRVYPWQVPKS
Method: The intrinsic fluorescence of cT1R1-NTD was measured as previously described by Nie et al. using a Cary Eclipse spectrofluorometer (Varian Instruments) equipped with a Peltier temperature control unit. Sample proteins were excited at 295 nm and emission spectra were recorded from 300 to 400 nm, with 5-nm and 10-nm bandwidth for emission and excitation, respectively. For titration experiments, fluorescence spectra were recorded using 0.5 μM protein solution in 50 mM Tris-HCl pH 8.0, 150 mM NaCl, 1mM DTT and 0.1 mM DDM. Ligand solutions were freshly prepared in the same buffer. Successive aliquots of potential ligands were added to 400 μL of cT1R1-NTD solution. The temperature was kept constant at 20°C. Fluorescence measurements were corrected for dilution, bleaching and nonspecific buffer quenching. Kd values and standard errors were calculated from a plot of the ratio between the fluorescence intensity variation and the maximum of fluorescence intensity variation versus concentration of total ligand, obtained with a standard non-linear regression method and using one site saturation ligand binding equation using SigmaPlot software. […] The Kd values of ligand-receptor interactions were determined using Eq (1) ΔF/ΔFmax = Bmax×[L]/(Kd+[L]) (1) Where Kd value is the apparent dissociation constant, ΔF is the difference between the fluorescence intensity at a given concentration of ligand and the fluorescence intensity in the absence of ligand, and ΔFmax is the difference at infinite ligand concentration [L], Bmax is the maximum fluorescence signal, [L] corresponds to the concentration of ligands. The reported Kd values are the average of more than nine measurements performed on at least three independently refolded protein samples. […] Statistical analyses: Dunnett’s test was used to determine the statistical significance between data means.

[2] = target: human T1R3-NTD; design: method as in PMID 22450161, PMID 22909933; conditions: cited from earlier work
[3] = ligand alone, no IMP, Fig 6: 100 μM final concentration, excitation 295 nm, emission 340 nm

Row | Compound | synergetic effect of IMP on L-amino acid binding (shift of binding curve) [1] | effect on cT1R1-NTD intrinsic fluorescence [1, 3] | other results
1 | N=C(N)NCCC[C@H](N)C(=O)O [L-Arg] | relatively modest | saturable intrinsic fluorescent enhancement | maximal amplitude of cT1R1-NTD fluorescence induced by the amino acid in presence of IMP ([1]; 0.3 μM IMP): increased
2 | C[C@H](N)C(=O)O [L-Ala, L-alanine] | relatively modest | saturable intrinsic fluorescent enhancement | 
3 | N[C@@H](Cc1c[nH]cn1)C(=O)O [L-His, L-histidine] | more pronounced | saturable intrinsic fluorescent enhancement | maximal amplitude of cT1R1-NTD fluorescence induced by the amino acid in presence of IMP ([1]; 0.3 μM IMP): increased
4 | Nc1nc2c(ncn2[C@@H]2O[C@H](COP(=O)(O)O)[C@@H](O)[C@H]2O)c(=O)[nH]1 [GMP, guanosine-5’-monophosphate] |  |  | effect on cT1R1-NTD intrinsic fluorescence ([1]; GMP alone at low concentrations (below 1 μM)): fluorescence enhancement
5 | N[C@@H](CS)C(=O)O [L-Cys] |  | no effect; also recorded: does not affect cT1R1-NTD fluorescence | fluorescence enhancement of cT1R1-NTD generated by 0.3 μM IMP in the presence of the amino acid ([1]; 0.3 μM IMP, compared with absence of L-Cys): not significantly different
6 | CC[C@H](C)[C@H](N)C(=O)O [L-Ile] | relatively modest | saturable intrinsic fluorescent enhancement | 
7 | OC[C@H]1O[C@H](O[C@]2(CCl)O[C@H](CCl)[C@@H](O)[C@@H]2O)[C@H](O)[C@@H](O)[C@H]1Cl [sucralose] |  |  | binding affinity [2]: millimolar range
